# Laboratory results reported in publication PMC10046369, “Low-Affinity/High-Selectivity Dopamine Transport Inhibition Sufficient to Rescue Cognitive Functions in the Aging Rat” (Biomolecules, 2023).
# Tests used:
# Experiment in all cases: biochemical
# Design in all cases: KINOMEscan competition binding panel, per cent of control
# Settings in all cases: read-out: %Ctrl @ 2800nM
# [1] = target: T1, ABL1(T315I)-nonphosphorylated (Homo sapiens, UniProt P00519, T315I)
# T1 construct: nonphosphorylated
# Method: (§1) A panel of binding assays covering 450 human kinases and disease-relevant mutations was performed by DiscoverX (KINOMEscan®, Freemont, CA, USA) according to the standard and validated protocol defined by the contractor. […] Kinase binding assays This study was outsourced to DiscoverX (KINOMEscan®, Freemont, CA, USA) and is compliant with the corresponding project BUY004-01-p-00001. […] Results are reported as percent control (% Ctrl), where lower numbers indicate stronger hits in the matrix on the following page(s). %Ctrl calculation: ((test compound signal-positive control signal) / (negative control signal – positive control signal)) x 100.
# AXL = AXL (Homo sapiens, UniProt P30530)
# Method: as §1
# CDKL5 = CDKL5 (Homo sapiens, UniProt O76039)
# Method: as §1
# CSF1R-autoinhibited = CSF1R-autoinhibited (Homo sapiens, UniProt P07333)
# Method: as §1
# CSK = CSK (Homo sapiens, UniProt P41240)
# Method: as §1
# CSNK1A1L = CSNK1A1L (Homo sapiens, UniProt Q8N752)
# Method: as §1
# CSNK2A2 = CSNK2A2 (Homo sapiens, UniProt P19784)
# Method: as §1
# EGFR(L858R) = EGFR(L858R) (Homo sapiens, UniProt P00533, L858R)
# Method: as §1
# EPHA3 = EPHA3 (Homo sapiens, UniProt P29320)
# Method: as §1
# EPHB1 = EPHB1 (Homo sapiens, UniProt P54762)
# Method: as §1
# FLT3(ITD,D835V) = FLT3(ITD,D835V) (Homo sapiens, UniProt P36888, D835V/ITD)
# Method: as §1
# FRK = FRK (Homo sapiens, UniProt P42685)
# Method: as §1
# GSK3A = GSK3A (Homo sapiens, UniProt P49840)
# Method: as §1
# HUNK = HUNK (Homo sapiens, UniProt P57058)
# Method: as §1
# IKK-alpha = target: T2, IKK-alpha (Homo sapiens, UniProt O15111)
# T2 construct: gene CHUK
# Method: as §1
# JNK2 = target: T3, JNK2 (Homo sapiens, UniProt P45984)
# T3 construct: gene MAPK9
# Method: as §1
# MET(M1250T) = MET(M1250T) (Homo sapiens, UniProt P08581, M1250T)
# Method: as §1
# MRCKA = target: T4, MRCKA (Homo sapiens, UniProt Q5VT25)
# T4 construct: gene CDC42BPA
# Method: as §1
# MST4 = target: T5, MST4 (Homo sapiens, UniProt Q9P289)
# T5 construct: gene STK26
# Method: as §1
# MYO3A = MYO3A (Homo sapiens, UniProt Q8NEV4)
# Method: as §1
# PIP5K1C = PIP5K1C (Homo sapiens, UniProt O60331)
# Method: as §1
# PKAC-beta = target: T6, PKAC-beta (Homo sapiens, UniProt P22694)
# T6 construct: gene PRKACB
# Method: as §1
# PRKCD = PRKCD (Homo sapiens, UniProt Q05655)
# Method: as §1
# SYK = SYK (Homo sapiens, UniProt P43405)
# Method: as §1
# SgK110 = target: T7, SgK110 (Homo sapiens, UniProt P0C264)
# T7 construct: gene SBK3
# Method: as §1
# p38-alpha = target: T8, p38-alpha (Homo sapiens, UniProt Q16539)
# T8 construct: gene MAPK14
# Method: as §1
# Chain of EPHA3 (P29320 whole entry): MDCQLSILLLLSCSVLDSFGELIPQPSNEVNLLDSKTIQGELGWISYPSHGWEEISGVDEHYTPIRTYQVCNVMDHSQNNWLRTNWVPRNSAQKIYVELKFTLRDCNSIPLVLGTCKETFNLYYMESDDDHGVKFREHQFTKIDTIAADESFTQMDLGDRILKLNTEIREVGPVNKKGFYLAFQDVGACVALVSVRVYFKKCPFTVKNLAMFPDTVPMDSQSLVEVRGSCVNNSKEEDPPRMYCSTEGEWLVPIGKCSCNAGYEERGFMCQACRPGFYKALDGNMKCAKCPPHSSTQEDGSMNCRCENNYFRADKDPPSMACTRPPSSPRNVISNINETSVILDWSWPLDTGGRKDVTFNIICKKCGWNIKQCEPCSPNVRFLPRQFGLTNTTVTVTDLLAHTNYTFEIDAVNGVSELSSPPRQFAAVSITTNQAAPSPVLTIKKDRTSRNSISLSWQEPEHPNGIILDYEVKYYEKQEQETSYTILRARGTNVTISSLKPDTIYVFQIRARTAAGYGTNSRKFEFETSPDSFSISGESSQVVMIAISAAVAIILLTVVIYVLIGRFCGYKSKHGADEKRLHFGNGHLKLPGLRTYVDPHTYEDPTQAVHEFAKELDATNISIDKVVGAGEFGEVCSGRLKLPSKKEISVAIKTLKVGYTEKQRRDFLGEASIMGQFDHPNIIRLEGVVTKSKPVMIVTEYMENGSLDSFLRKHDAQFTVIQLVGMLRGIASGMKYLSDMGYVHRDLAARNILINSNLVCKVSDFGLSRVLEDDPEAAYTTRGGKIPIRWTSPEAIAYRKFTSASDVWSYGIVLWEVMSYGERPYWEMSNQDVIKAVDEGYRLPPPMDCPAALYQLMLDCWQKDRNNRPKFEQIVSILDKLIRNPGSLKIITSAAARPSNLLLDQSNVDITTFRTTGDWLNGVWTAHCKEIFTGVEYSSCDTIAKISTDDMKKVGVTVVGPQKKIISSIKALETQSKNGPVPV
# Chain of CSK (P41240 whole entry): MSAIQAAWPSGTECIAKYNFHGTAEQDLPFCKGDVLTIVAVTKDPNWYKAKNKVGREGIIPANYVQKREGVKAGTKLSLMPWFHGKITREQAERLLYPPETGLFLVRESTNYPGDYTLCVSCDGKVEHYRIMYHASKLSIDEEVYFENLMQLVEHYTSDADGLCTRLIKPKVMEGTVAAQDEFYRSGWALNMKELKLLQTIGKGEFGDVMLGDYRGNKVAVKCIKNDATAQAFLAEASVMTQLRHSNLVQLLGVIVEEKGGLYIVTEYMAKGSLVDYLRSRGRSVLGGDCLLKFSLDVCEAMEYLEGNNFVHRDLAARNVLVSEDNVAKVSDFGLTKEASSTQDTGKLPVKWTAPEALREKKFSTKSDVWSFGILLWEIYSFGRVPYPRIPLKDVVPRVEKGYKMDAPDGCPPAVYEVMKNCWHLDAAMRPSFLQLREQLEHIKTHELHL
# Chain of CSF1R-autoinhibited (P07333 whole entry): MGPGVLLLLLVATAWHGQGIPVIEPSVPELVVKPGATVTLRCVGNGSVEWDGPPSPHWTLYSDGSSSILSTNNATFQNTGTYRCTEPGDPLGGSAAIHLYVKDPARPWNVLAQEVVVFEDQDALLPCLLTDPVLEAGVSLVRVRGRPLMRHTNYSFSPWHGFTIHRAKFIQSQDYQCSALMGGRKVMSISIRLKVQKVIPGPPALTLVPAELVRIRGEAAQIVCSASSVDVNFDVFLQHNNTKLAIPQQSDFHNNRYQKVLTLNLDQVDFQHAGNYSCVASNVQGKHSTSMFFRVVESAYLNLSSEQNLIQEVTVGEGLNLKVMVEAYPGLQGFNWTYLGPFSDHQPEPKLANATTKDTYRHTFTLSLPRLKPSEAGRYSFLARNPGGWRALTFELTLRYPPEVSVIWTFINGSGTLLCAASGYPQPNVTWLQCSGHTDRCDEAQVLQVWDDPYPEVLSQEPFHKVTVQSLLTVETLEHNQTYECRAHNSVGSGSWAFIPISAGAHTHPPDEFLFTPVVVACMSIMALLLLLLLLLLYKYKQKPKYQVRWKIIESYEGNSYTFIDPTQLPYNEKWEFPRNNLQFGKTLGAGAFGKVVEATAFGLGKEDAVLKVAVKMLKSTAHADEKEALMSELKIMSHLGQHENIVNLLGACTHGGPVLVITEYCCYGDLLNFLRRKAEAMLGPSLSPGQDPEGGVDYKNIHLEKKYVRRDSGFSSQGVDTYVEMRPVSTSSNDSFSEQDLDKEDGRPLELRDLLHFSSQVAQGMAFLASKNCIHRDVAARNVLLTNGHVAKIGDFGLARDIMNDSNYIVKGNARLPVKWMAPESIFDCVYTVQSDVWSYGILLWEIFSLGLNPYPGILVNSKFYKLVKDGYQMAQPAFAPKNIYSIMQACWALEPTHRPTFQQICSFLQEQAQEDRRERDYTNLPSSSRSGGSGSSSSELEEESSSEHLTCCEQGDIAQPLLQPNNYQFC
# Chain of CDKL5 (O76039 whole entry): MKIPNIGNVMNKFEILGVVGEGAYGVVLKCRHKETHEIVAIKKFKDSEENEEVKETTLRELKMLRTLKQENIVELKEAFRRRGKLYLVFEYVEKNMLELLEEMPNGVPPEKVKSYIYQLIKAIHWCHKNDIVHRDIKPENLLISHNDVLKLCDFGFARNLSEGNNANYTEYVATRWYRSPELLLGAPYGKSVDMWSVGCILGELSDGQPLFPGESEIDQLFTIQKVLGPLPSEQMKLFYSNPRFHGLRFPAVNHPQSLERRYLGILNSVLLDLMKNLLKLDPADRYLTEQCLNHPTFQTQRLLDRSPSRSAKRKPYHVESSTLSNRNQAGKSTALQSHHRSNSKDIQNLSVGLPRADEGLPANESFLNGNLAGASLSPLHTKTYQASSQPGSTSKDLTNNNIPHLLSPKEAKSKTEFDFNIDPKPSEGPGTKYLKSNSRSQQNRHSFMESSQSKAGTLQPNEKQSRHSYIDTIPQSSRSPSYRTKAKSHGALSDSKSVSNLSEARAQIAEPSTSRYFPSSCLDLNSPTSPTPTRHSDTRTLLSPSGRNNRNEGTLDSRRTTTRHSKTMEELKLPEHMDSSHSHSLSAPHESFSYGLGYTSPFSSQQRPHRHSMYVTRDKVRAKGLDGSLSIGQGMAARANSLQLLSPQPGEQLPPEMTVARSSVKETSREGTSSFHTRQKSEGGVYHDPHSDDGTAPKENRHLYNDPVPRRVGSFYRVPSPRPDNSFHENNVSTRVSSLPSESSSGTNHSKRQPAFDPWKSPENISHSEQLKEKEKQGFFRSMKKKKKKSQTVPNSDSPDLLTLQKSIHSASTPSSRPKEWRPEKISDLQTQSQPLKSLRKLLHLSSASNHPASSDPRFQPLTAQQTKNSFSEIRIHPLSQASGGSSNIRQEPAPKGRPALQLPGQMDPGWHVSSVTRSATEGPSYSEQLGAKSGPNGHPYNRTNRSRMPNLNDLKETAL
# Chain of CSNK1A1L (Q8N752 whole entry): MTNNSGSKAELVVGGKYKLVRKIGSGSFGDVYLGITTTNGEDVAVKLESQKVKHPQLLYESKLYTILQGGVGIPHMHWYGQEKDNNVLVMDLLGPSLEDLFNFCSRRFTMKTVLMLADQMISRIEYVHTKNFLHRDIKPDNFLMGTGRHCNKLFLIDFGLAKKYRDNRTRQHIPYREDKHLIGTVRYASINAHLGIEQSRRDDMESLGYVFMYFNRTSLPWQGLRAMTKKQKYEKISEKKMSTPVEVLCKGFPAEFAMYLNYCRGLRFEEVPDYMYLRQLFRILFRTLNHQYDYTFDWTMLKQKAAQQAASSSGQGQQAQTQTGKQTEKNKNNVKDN
# T7 sequence (P0C264 whole entry): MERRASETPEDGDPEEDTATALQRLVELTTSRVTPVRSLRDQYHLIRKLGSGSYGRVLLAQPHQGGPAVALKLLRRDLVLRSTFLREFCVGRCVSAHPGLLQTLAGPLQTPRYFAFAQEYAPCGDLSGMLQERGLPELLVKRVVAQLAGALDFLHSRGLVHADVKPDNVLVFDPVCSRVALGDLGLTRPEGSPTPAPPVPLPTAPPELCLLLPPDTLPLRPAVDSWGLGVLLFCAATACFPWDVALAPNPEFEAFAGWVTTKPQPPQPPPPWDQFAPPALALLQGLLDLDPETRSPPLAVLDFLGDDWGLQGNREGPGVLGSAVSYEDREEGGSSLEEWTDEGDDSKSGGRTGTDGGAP
# T3 sequence (P45984 whole entry): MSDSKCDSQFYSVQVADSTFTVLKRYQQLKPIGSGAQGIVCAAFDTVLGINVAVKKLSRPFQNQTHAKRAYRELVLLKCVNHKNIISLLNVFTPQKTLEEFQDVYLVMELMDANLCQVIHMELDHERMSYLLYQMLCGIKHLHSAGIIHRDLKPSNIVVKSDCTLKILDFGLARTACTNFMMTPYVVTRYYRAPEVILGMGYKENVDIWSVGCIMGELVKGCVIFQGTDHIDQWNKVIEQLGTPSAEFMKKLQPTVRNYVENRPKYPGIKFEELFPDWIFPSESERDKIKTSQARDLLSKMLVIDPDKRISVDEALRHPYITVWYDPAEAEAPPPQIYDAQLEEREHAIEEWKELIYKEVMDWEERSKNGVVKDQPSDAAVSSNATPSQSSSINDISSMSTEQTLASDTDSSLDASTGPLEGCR
# Chain of FRK (P42685 whole entry): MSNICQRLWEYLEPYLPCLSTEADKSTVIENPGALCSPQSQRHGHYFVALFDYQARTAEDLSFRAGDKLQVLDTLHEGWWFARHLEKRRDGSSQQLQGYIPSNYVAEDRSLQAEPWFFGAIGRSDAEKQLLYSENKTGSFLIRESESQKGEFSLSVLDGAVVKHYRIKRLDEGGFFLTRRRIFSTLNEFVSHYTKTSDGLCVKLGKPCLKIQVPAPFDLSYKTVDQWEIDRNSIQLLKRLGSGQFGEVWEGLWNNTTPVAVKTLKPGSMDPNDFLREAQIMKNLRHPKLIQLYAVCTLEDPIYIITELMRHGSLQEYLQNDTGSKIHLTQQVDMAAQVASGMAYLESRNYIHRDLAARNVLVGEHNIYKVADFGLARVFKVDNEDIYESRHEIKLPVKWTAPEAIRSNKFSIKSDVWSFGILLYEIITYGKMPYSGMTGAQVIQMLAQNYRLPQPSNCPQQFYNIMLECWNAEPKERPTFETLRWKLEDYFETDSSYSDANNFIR
smiles,measurement,setting,value
"[O-][S@@+](Cc1cncs1)C(c1ccccc1)c1ccccc1 [S-CE-123, (S)-5-((Benzhydrylsulfinyl)Methyl)Thiazole]",remaining binding at 2.8 µM,[1],100%
same,remaining binding at 2.8 µM,AXL,96%
same,remaining binding at 2.8 µM,CDKL5,97%
same,remaining binding at 2.8 µM,CSF1R-autoinhibited,100%
same,remaining binding at 2.8 µM,CSK,98%
same,remaining binding at 2.8 µM,CSNK1A1L,100%
same,remaining binding at 2.8 µM,CSNK2A2,100%
same,remaining binding at 2.8 µM,EGFR(L858R),92%
same,remaining binding at 2.8 µM,EPHA3,97%
same,remaining binding at 2.8 µM,EPHB1,100%
same,remaining binding at 2.8 µM,"FLT3(ITD,D835V)",100%
same,remaining binding at 2.8 µM,FRK,96%
same,remaining binding at 2.8 µM,GSK3A,99%
same,remaining binding at 2.8 µM,HUNK,100%
same,remaining binding at 2.8 µM,IKK-alpha,100%
same,remaining binding at 2.8 µM,JNK2,90%
same,remaining binding at 2.8 µM,MET(M1250T),99%
same,remaining binding at 2.8 µM,MRCKA,95%
same,remaining binding at 2.8 µM,MST4,100%
same,remaining binding at 2.8 µM,MYO3A,96%
same,remaining binding at 2.8 µM,PIP5K1C,100%
same,remaining binding at 2.8 µM,PKAC-beta,100%
same,remaining binding at 2.8 µM,PRKCD,89%
same,remaining binding at 2.8 µM,SYK,100%
same,remaining binding at 2.8 µM,SgK110,72%
same,remaining binding at 2.8 µM,p38-alpha,100%
